Where a name gives a salt, the structure may show the parent alone.
Assays:
HDAC = conditions: cited from earlier work
HDAC3 = HDAC3 (Homo sapiens, UniProt O15379); conditions: cited from earlier work
FKBP12 = FKBP12 (Homo sapiens, UniProt P62942); conditions: mTOR inhibitor of FKBP12; cited from earlier work
PI3K/mTOR = conditions: dual PI3K/mTOR inhibitor; cited from earlier work
[1] = test system: Akt phosphorylation on T308; conditions: cited from earlier work
[2] = test system: Akt phosphorylation on S473; conditions: cited from earlier work
MOLT-4 cells = conditions: in MOLT-4 cells; cited from earlier work
Reh cells = conditions: in Reh cells; cited from earlier work
mTOR = mTOR (Homo sapiens, UniProt P42345); conditions: cited from earlier work
HL60 = experiment: MTT assay, anti-proliferative effect; assay type: cell-based; conditions: Homo sapiens, HL-60; HL60, 72-h exposure; range given for HL60, U937 and Jurkat together
Experimental: (§1) MTT assays were performed after 72 hours exposure. Protein levels were analyzed by Western Blot using commercial antibodies. RNA was extracted using the Qiagen RNAEasy and RT-PCR was performed using Fast SYBR Green on a StepOnePlus Real-Time PCR System. Combination effects were evaluated in four cell lines (HL60, U937, Jurkat and K562); compound (1-1) was administered with daunorubicin, azacytidine, dexamethasone, cytarabine or methotrexate. The 48 h Combination Index (CI) was determined by median effect plot analysis using CalcuSyn software expressed as the median and range of CI values among cell lines (Chou & Talalay analysis). CI<1 reflects synergy effects, CI=1 reflects additivity and CI>1 reflects antagonist effects.
(§2) Four established human cell lines derived from acute (HL60, U937), chronic (K562) myeloid leukemia, and acute lymphoblastic leukemia (Jurkat) were treated with increasing compound (1-1) doses. MTT assays were performed after 72 h exposure. GI50 and Emax values were calculated with the equation for sigmoidal dose response using Prism 5.00. Results are the mean±95% CI of at least 3 independent experiments performed in triplicate. […] Protein levels were analyzed by Western Blot using commercial antibodies. For cell cycle analysis and apoptosis induction, cells were stained with PI or Annexin V respectively, and analyzed using a FACScan flow cytometer. RT-PCR was performed using Fast SYBR Green Master Mix on a StepOnePlus Real-Time PCR System. […] Compound (1-1) combination studies were performed in cell lines exposed for 48 h to increasing doses of compound (1-1) alone or in combination several conventional anti-leukemic drugs, such as epigenetic modulators, steroids, m-TOR inhibitors and classical cytotoxic agents, and assessed using the Chou & Talalay method. […] The Combination Index (CI) was determined by median effect plot analysis using CalcuSyn software. […]

Jurkat = experiment: MTT assay, anti-proliferative effect; assay type: cell-based; conditions: Homo sapiens, 72-h exposure, range given for HL60, U937 and Jurkat together
Experimental: as §1, §2

U937 = experiment: MTT assay, anti-proliferative effect; assay type: cell-based; conditions: Homo sapiens, U-937; U937, 72-h exposure; range given for HL60, U937 and Jurkat together
Experimental: as §1, §2

[3] = test system: K-562, NALM-1, CCRF-CEM, MOLT-3 and -4; experiment: MTT assay, anti-proliferative effect, rest of the panel; assay type: cell-based; conditions: Homo sapiens; the rest of the eight cell lines, 72-h exposure
Experimental: as §1

[4] = test system: compound (1-1) sensitive cell lines (HL60, U937 and Jurkat); experiment: Cell cycle analysis and apoptosis induction; assay type: cell-based, human
Experimental: Four established human cell lines derived from acute (HL60, U937), chronic (K562) myeloid leukemia, and acute lymphoblastic leukemia (Jurkat) were treated with increasing compound (1-1) doses. MTT assays were performed after 72 h exposure. GI50 and Emax values were calculated with the equation for sigmoidal dose response using Prism 5.00. Results are the mean±95% CI of at least 3 independent experiments performed in triplicate. […] Protein levels were analyzed by Western Blot using commercial antibodies. For cell cycle analysis and apoptosis induction, cells were stained with PI or Annexin V respectively, and analyzed using a FACScan flow cytometer. RT-PCR was performed using Fast SYBR Green Master Mix on a StepOnePlus Real-Time PCR System. Cell cycle, apoptosis induction and qRT-PCR results are the mean±SD of at least 3 independent experiments, where *p<0.05, **p<0.001 and ***p<0.0001 versus control cells (0.1% DMSO), employing Anova then Dunnett's Multiple Comparison Test. Compound (1-1) combination studies were performed in cell lines exposed for 48 h to increasing doses of compound (1-1) alone or in combination several conventional anti-leukemic drugs, such as epigenetic modulators, steroids, m-TOR inhibitors and classical cytotoxic agents, and assessed using the Chou & Talalay method. For the sequential combination schemes, cell lines were exposed to azacytidine or panobinostat for 48 or 72 h, washed with drug-free medium and then treated with compound (1-1) for 24 or 48 h. The Combination Index (CI) was determined by median effect plot analysis using CalcuSyn software. CI<1 reflects synergy, CI=1 additivity and CI>1 antagonist effects. Results represent the median and range of 4 independent experiments performed in triplicate.

c-MYC [5] = experiment: c-MYC mRNA (RT-PCR) and protein (Western Blot) in sensitive cell lines; assay type: cell-based, human
Experimental: as §1
(§3) Four established human cell lines derived from acute (HL60, U937), chronic (K562) myeloid leukemia, and acute lymphoblastic leukemia (Jurkat) were treated with increasing compound (1-1) doses. MTT assays were performed after 72 h exposure. GI50 and Emax values were calculated with the equation for sigmoidal dose response using Prism 5.00. […] Protein levels were analyzed by Western Blot using commercial antibodies. For cell cycle analysis and apoptosis induction, cells were stained with PI or Annexin V respectively, and analyzed using a FACScan flow cytometer. […] The Combination Index (CI) was determined by median effect plot analysis using CalcuSyn software. […]

c-MYC [6] = experiment: c-MYC RNA and protein in resistant cell line K562; assay type: cell-based, human
Experimental: as §1, §3

BRD2 and BRD4 = BRD2 and BRD4 mRNA and protein in Jurkat cells; assay type: cell-based, human
[7] = test system: HL60, U937, Jurkat and K562; experiment: Combination Index, Chou & Talalay median effect analysis; assay type: cell-based, human; conditions: OTX015-sensitive and resistant leukemic cells lines
PI3Kβ (p110β) = PI3Kβ (p110β) (Homo sapiens, UniProt P42338); conditions: cited from earlier work
PI3Kγ (p110γ) = PI3Kγ (p110γ) (Homo sapiens, UniProt P48736); conditions: cited from earlier work
[8] = sensitive leukemic cells, 48 h exposure to 500 nM (Example 8)

Chain of PI3Kγ (p110γ) (P48736 whole entry, species assumed): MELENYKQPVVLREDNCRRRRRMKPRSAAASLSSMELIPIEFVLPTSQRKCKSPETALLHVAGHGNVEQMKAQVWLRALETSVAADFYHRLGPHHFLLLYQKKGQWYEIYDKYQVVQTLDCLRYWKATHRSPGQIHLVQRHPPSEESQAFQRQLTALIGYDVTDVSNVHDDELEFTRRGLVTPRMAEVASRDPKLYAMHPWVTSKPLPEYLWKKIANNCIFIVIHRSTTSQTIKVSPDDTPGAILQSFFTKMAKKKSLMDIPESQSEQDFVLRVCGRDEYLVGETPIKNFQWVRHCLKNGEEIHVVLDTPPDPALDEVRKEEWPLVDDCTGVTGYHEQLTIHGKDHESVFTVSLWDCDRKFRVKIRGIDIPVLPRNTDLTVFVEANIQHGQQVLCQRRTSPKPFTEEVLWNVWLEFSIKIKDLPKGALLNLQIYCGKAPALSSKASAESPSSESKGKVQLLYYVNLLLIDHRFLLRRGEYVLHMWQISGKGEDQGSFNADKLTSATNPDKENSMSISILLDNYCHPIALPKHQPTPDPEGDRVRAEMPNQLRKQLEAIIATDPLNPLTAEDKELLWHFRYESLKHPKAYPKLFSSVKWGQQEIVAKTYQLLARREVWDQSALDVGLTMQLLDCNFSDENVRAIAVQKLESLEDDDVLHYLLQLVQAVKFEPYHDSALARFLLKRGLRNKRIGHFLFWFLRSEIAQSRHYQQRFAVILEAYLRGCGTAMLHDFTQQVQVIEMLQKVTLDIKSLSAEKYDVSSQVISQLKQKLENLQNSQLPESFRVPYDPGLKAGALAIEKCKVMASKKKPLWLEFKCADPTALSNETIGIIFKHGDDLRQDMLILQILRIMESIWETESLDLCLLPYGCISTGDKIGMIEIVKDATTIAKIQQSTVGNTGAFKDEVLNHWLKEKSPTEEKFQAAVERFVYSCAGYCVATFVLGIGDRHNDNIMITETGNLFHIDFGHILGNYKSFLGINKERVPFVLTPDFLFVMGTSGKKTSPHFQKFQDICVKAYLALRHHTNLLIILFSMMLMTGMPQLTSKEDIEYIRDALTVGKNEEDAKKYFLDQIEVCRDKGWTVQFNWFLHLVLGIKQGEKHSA
Chain of PI3Kβ (p110β) (P42338 whole entry, species assumed): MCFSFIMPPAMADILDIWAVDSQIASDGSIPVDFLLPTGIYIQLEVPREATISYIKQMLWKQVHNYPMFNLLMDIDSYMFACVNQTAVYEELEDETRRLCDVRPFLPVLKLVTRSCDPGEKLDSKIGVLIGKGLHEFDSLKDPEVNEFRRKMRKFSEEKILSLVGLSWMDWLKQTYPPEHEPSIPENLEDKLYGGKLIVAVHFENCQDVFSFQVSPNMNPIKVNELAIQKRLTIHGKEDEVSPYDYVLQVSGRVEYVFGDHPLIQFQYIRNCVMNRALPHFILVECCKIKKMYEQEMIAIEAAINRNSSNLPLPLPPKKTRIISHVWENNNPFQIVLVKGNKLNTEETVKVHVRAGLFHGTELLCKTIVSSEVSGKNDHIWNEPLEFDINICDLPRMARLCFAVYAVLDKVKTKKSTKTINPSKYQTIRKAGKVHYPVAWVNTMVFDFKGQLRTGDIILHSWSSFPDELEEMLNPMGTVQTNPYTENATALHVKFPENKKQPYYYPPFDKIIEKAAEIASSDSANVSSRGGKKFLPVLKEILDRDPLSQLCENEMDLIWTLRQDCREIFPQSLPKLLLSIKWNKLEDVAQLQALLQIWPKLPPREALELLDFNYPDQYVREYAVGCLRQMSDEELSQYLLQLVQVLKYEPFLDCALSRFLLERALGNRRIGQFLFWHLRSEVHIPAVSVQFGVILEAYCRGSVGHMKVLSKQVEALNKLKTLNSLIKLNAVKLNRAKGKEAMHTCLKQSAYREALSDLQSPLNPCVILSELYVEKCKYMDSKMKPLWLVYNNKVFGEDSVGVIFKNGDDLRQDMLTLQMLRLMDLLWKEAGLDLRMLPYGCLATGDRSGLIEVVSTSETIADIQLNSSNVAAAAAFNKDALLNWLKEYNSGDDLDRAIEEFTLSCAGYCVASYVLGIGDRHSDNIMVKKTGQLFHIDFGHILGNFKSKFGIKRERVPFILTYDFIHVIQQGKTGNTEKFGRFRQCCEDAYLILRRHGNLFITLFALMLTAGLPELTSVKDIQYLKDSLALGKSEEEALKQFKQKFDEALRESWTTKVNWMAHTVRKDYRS
Chain of PI3Kβ (p110β) (P27986 whole entry partner, species assumed): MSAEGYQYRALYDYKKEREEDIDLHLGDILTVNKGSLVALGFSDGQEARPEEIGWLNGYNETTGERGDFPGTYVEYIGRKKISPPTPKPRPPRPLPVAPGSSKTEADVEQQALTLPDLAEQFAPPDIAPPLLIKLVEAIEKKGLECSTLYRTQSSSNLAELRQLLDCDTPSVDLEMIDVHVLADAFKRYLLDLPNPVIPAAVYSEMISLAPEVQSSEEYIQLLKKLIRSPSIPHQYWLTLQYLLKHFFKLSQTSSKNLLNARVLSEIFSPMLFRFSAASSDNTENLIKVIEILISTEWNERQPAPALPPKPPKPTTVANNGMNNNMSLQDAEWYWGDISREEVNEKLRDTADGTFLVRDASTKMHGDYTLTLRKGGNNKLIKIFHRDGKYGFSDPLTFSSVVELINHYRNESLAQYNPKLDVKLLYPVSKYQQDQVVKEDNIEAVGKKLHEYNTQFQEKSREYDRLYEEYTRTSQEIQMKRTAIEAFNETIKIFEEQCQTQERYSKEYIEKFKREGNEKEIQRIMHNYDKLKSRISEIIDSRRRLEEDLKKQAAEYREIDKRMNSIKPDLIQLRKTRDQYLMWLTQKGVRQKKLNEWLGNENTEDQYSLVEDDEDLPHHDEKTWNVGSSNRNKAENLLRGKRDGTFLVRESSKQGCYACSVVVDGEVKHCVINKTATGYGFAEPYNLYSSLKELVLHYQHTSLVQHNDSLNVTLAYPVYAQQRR
Chain of FKBP12 (P62942 whole entry, species assumed): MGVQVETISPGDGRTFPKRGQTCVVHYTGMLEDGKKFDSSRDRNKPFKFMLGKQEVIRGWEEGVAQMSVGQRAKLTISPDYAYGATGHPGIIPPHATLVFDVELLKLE
Chain of HDAC3 (O15379 whole entry, species assumed): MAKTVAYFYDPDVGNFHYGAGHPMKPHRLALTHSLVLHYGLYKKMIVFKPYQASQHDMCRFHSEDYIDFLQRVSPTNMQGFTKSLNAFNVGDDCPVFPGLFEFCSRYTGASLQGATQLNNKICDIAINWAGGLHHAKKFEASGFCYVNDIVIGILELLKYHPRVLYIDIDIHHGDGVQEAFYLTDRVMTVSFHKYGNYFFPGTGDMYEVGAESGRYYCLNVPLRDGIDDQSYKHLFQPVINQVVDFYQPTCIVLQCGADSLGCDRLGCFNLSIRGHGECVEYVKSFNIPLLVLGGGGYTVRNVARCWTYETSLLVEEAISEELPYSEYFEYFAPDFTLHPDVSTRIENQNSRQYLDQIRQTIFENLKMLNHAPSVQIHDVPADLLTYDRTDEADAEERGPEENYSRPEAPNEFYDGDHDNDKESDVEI
Chain of HDAC3 (Q9Y618 395-489 partner limits assumed, species assumed): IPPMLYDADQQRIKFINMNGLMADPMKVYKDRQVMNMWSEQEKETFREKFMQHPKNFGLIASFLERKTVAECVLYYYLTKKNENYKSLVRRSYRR

In the case of `CC(C)[C@H](C(=O)Nc1ccc(C(=O)NO)cc1)c1ccccc1` [AR-42, (S)-N-hydroxy-4-(3-methyl-2-phenylbutanamido)benzamide], the IC50 (HDAC) is listed as 30 nM.
In the case of `Cc1cc(Cl)ccc1OCCCC(=O)NO` [Droxinostat, 4-(4-Chloro-2-methylphenoxy)-N-hydroxybutanamide], the IC50 (HDAC3) is listed as 16900 nM.
In the case of `CO[C@H]1C[C@@H]2CC[C@@H](C)[C@@](O)(O2)C(=O)C(=O)N2CCCC[C@H]2C(=O)O[C@H]([C@H](C)C[C@@H]2CC[C@@H](OCCO)[C@H](OC)C2)CC(=O)[C@H](C)/C=C(\C)[C@@H](O)[C@@H](OC)C(=O)[C@H](C)C[C@H](C)/C=C/C=C/C=C/1C` [Everolimus], the IC50 (FKBP12) is given as 1.6 to 2.4 nM.
For `CCN(CC)Cc1ccc2cc(COC(=O)Nc3ccc(C(=O)NO)cc3)ccc2c1` [ITF2357], the IC50 (HDAC) is given as 7.5 to 16 nM.
In the case of `O=C(/C=C/c1ccc(CN(CCO)CCc2c[nH]c3ccccc23)cc1)NO` [LAQ824], the IC50 (HDAC) is given as 32 nM.
For `CN(C)c1ccc(C(=O)NCCCCCCC(=O)NO)cc1` [M344], the IC50 (HDAC) is listed as 100 nM.
For `Cn1c(/C=C/C(=O)NO)ccc1/C=C/C(=O)c1cccc(F)c1` [MC1568], the IC50 (HDAC) is listed as 220 nM.
For `COc1ccc(-c2ccc3ncc4c(c3c2)n(-c2ccc(N3CCNCC3)c(C(F)(F)F)c2)c(=O)n4C)cn1` [NVP-BGT226], the IC50 (PI3K/mTOR) is given as 1 nM.
For `COc1ccc(-c2cc3c(C)nc(N)nc3n([C@H]3CC[C@H](OCCO)CC3)c2=O)cn1` [PF-04691502], the IC50 [1] is given as 7.5 nM and the IC50 [2] is given as 3.8 nM.
In the case of `Cc1[nH]c2ccccc2c1CCNCc1ccc(/C=C/C(=O)NO)cc1` [Panobinostat], the IC50 (MOLT-4 cells) is given as 5 nM and the IC50 (Reh cells) is given as 20 nM.
In the case of `CCCCc1nc2cc(/C=C/C(=O)NO)ccc2n1CCN(CC)CC` [SB939, (E)-3-(2-butyl-1-(2-(diethylamino)ethyl)-1H-benzo[d]imidazol-5-yl)-N-hydioxyacrylamide], the IC50 (HDAC) is listed as 40 to 140 nM.
In the case of `CO[C@H]1C[C@@H]2CC[C@@H](C)[C@@](O)(O2)C(=O)C(=O)N2CCCC[C@H]2C(=O)O[C@H]([C@H](C)C[C@@H]2CC[C@@H](OC(=O)C(C)(CO)CO)[C@H](OC)C2)CC(=O)[C@H](C)/C=C(\C)[C@@H](O)[C@@H](OC)C(=O)[C@H](C)C[C@H](C)/C=C/C=C/C=C/1C` [Temsirolimus], the IC50 (mTOR) is given as 1.76 nM.
For `CCCC(CCC)C(=O)O` [Valproic acid sodium salt], the IC50 (HDAC) is given as 400000 nM.
Work on `Cc1sc2c(c1C)C(c1ccc(Cl)cc1)=N[C@@H](CC(=O)Nc1ccc(O)cc1)c1nnc(C)n1-2` [compound (1-1), 2-[(6S)-4-(4-chlorophenyl)-2,3,9-trimethyl-6H-thienol[3,2-f]-[1,2,4]triazolo[4,3-a][1,4]diazepin-6-yl]-N-(4-hydroxyphenyl)acetamide dihydrate] yielded a GI50 (HL60) of 230 to 384 nM, a GI50 (Jurkat) of 230 to 384 nM and a GI50 (U937) of 230 to 384 nM. For the same molecule, the GI50 [3] was at least 1000 nM, the induction of apoptosis ([4]; sensitive cell lines (Example 7)) was “without induction of apoptosis” and the cell cycle effect ([4]; sensitive cell lines, time-dependent (Example 7)) was “cell cycle arrest in G1”. The cell cycle effect [4, 8] was “increased proportion of cells in cell cycle phase G0/G1”, the induction of apoptosis [4, 8] was “slight induction of apoptosis” and the “c-MYC mRNA and protein levels” value (c-MYC [5]; sensitive cell lines (Example 8)) was “rapid and sustained downregulation”. For the same molecule, the “cMYC mRNA and protein levels” value (c-MYC [5]; sensitive cell lines, 500 nM, after 6-h and up to 72-h treatment) was “down-regulated”, the “levels of c-MYC RNA” value (c-MYC [6]; K562, after 4-h and 24-h exposure) was “decreased levels” and the cMYC protein levels (c-MYC [6]; K562, even after 72 h of treatment) was “constant”. The “BRD2 and BRD4 protein levels” value (BRD2 and BRD4) was “without modifying protein levels”, the “mRNA levels of BRD2 and BRD4” value (BRD2 and BRD4) was “up-regulation” and the “effect in concomitant combination with demethylating agents, HDAC and mTOR inhibitors, glucocorticoids, and conventional cytotoxic drugs” value [7] was “strong synergistic effects”.
For “(3S,6S,9S,15aR)-9-((R)-sec-butyl)-6-((1-methoxy-1H-indol-2-yl)methyl)-3-(6-oxooetyl)decahydro-1H-pyrido[1,2-a][1,4,7,10]tetraazacyclododecine-1,4,7,10(12H)-tetraone [Apicidin]”, the IC50 (HDAC) is listed as 0.7 nM.
In the case of GSK2126458, the Ki (PI3Kβ (p110β)) is given as 0.13 nM and the Ki (PI3Kγ (p110γ)) is given as 0.024 nM.
